Source: the PolyMetriX glass transition set

glass transition temperature | Compound
342.00 °C | *C(=O)Nc1ccc(S(=O)(=O)c2ccc(NC(=O)c3ccc4c(c3)C(=O)N(c3cccc(N5C(=O)c6ccc(*)cc6C5=O)c3)C4=O)cc2)cc1 (repeat unit)
64.00 °C | *c1cc(CC(=O)OCCCCCCOc2ccc(/N=N/c3ccc(C#N)cc3)cc2)c(*)s1 (repeat unit)
293.50 °C | *c1ccc2c(c1)C(=O)N(c1cc(C(=O)Nc3ccc(C(c4ccc(NC(=O)c5ccc(C)c(N6C(=O)c7ccc(C(*)(C(F)(F)F)C(F)(F)F)cc7C6=O)c5)cc4)(C(F)(F)F)C(F)(F)F)cc3)ccc1C)C2=O (repeat unit)
54.00 °C | *CC(*)OCCOc1ccc(/N=N/c2ccc([N+](=O)[O-])cc2)cc1 (repeat unit)
268.00 °C | *C(=O)c1ccc(Oc2ccc(C3(c4ccc(Oc5ccc(C(=O)c6ccc7c(c6)C(=O)N(c6ccc(Cc8ccc(N9C(=O)c%10ccc(*)cc%10C9=O)cc8)cc6)C7=O)cc5)cc4)OC(=O)c4ccccc43)cc2)cc1 (repeat unit)
291.00 °C | *c1ccc(Oc2ccc(C(c3ccc(Oc4ccc(-c5nnc(*)c6c(-c7ccccc7)c(-c7ccc8ccccc8c7)c(-c7ccc8ccccc8c7)c(-c7ccccc7)c56)cc4)cc3)(C(F)(F)F)C(F)(F)F)cc2)cc1 (repeat unit)
132.00 °C | *c1cccc(OCCCCCCCCCOc2cccc(N3C(=O)c4ccc(-c5ccc6c(c5)C(=O)N(*)C6=O)cc4C3=O)c2)c1 (repeat unit)
260.00 °C | *C(=O)Nc1ccc(Oc2ccc(S(=O)(=O)c3ccc(Oc4ccc(NC(=O)c5ccc6c(c5)C(=O)N(c5ccc(Oc7cccc8c(Oc9ccc(N%10C(=O)c%11ccc(*)cc%11C%10=O)cc9)cccc78)cc5)C6=O)cc4)cc3)cc2)cc1 (repeat unit)
207.00 °C | *CC1CC2CC1C1CCC(CN3C(=O)c4ccc(C(c5ccc6c(c5)C(=O)N(*)C6=O)(C(F)(F)F)C(F)(F)F)cc4C3=O)C21 (repeat unit)
254.8 °C | *c1ccc(Sc2ccc3c(c2)Sc2ccc(Sc4ccc(-n5c(=O)c6cc7c(=O)n(*)c(=O)c7cc6c5=O)cc4)cc2S3)cc1 (repeat unit)
167.00 °C | *Oc1c(F)c(F)c(-c2c(F)c(F)c(Oc3ccc(C(c4ccc(*)cc4)(C(F)(F)F)C(F)(F)F)cc3)c(F)c2F)c(F)c1F (repeat unit)
37.00 °C | *CCOCCOCCOCCOC(=O)Nc1ccc(Cc2ccc(NC(=O)O*)cc2)cc1 (repeat unit)
106.50 °C | *Oc1ccc(OC(=O)c2cccc(Sc3ccc(OC(=O)c4ccc(C(=O)Oc5ccc(Sc6cccc(C(*)=O)c6)cc5)cc4)cc3)c2)cc1C (repeat unit)
211.00 °C | *C(=O)Nc1ccc(Cc2ccc(NC(=O)c3ccc4c(c3)C(=O)N(c3ccc(NC(=O)Nc5ccc(N6C(=O)c7ccc(*)cc7C6=O)cc5)cc3)C4=O)cc2)cc1 (repeat unit)
40.00 °C | *CCCNC(=O)CCCCCCCCC(=O)NCCCOCCOCCO* (repeat unit)
-17.00 °C | *CCCCCCCCCCOC(=O)CCCCCCCCCCCCCCCCC(=O)O* (repeat unit)
260.00 °C | *C1C(*)C2CC1C(C(=O)OCCC1CC3CCC1C3)C2C(=O)OCCC1CC2CCC1C2 (repeat unit)
202.00 °C | *c1ccc(Oc2ccc(C(=O)c3cccc(C(=O)c4ccc(Oc5ccc(-c6nc(-c7ccccn7)nnc6*)cc5)cc4)c3)cc2)cc1 (repeat unit)
15.00 °C | *Oc1ccc(CC(NC(=O)CCc2ccc(OC(=O)CCCCC(*)=O)cc2)C(=O)OCCOCCOCC)cc1 (repeat unit)
118.00 °C | */C=C/c1ccc(*)c(-c2c(OCC(CC)CCCC)ccc3ccccc23)c1 (repeat unit)
55.50 °C | *Oc1ccc(CC(NC(=O)CCc2ccc(OC(=O)CCCCCCC(*)=O)cc2)C(=O)OC)cc1 (repeat unit)

Compound | glass transition temperature
*Sc1ccc(Sc2ccc(Sc3ccc(P(=O)(c4ccccc4)c4ccc(*)cc4)cc3)cc2)cc1 (repeat unit) | 175.00 °C
